Values quoted from earlier work as cited in US12213954B2, “Colchicine solution” (PHARMA-DATA RESEARCH AND D[…] MEMBER S.A., priority 2021, dated 2025).

Details: pure colchicine

## COc1cc2c(c(OC)c1OC)-c1ccc(OC)c(=O)cc1[C@@H](NC(C)=O)CC2 [colchicine, (S)—N-(5,6,7,9-tetrahydro-1,2,3,10-tetramethoxy-9-oxo-benzo[a]heptalene-7-yl)acetamide]
  solubility in water, ethanol and chloroform (in words): well soluble
